The source of these data is US20260015364A1, “PIPERAZINE BRIDGE-SUBSTITUTED HETEROCYCLIC PYRIMIDINE COMPOUND” (MEDSHINE DISCOVERY INC., priority 2022, published 2026).

In experiment [1] the test system is GP2D cell subcutaneously transplanted tumors. Briefly: In vivo pharmacodynamic experiment of GP2D tumor model. On the set-up: species or system Balb/c Nude mice. Particulars: p.o., BID, 28 days of administration. On the procedure: In vivo pharmacodynamics of GP2D cell subcutaneously transplanted tumors in Balb/c Nude mice model with human colon cancer
Cell culture: Human colon cancer GP2D cells were cultured in monolayer in vitro. The culture conditions were DMEM/F12 medium+20% fetal bovine serum, and cultured in a 37° C., 5% carbon dioxide incubator. Routine digestion with trypsin-EDTA was performed twice a week for passaging. When the cell saturation reached 80% to 90% and the required quantity was reached, the cells were harvested, counted, resuspended in an appropriate amount of PBS, and mixed with matrigel at a ratio of 1:1 to obtain a cell suspension with a cell density of 25×10^6 cells/mL.
Cell inoculation: 0.2 mL (5×10^6 cells/mouse) of GP2D cells (added with Matrigel with a volume ratio of 1:1) were subcutaneously inoculated into the right back of each mouse. […]
Tumor diameters were measured twice a week with a vernier caliper. […]
The tumor inhibitory efficacy of the compound was evaluated by TGI (%) or relative tumor proliferation rate T/C (%). […] The relative tumor volume (RTV) was calculated based on the results of tumor measurements. The calculation formula is RTV=Vt/V0, where V0 is the average tumor volume measured at the beginning of administration in groups (i.e., D0), and Vt is the average tumor volume measured at a certain measurement. […]

Experiment [2] concerns AsPC-1 human pancreatic cancer cells with KRAS^G12D mutation. Briefly: AsPC-1 3D CTG experiment (anti-proliferation). Type of experiment: cell-based. The following applies: ASPC1, 168 h, 7 days incubation. The source says:
This experiment aims to verify the inhibitory effect of the compounds of the present disclosure on the proliferation of AsPC-1 human pancreatic cancer cells with KRAS^G12D mutation.
Cell line AsPC-1 and RPMI-1640 medium were purchased from GIBCO, and FBS was purchased from Hyclone. The 96-well plate was purchased from Ultra Low Cluster, CellTiter-Glo® 3D Cell Viability Assay reagents (chemiluminescent 3D cell viability assay reagents) were purchased from Promega, and 2104 EnVision plate reader was purchased from PerkinElmer.
AsPC-1 cells were cultured in an incubator at 37° C. with 5% CO2 the conditions of RPMI-1640+10% FBS. Regular passaging was performed, and cells in the logarithmic growth phase were selected for plating. AsPC-1 cells were seeded in a 96-well U-bottom cell culture plate, and each well of 135 μL cell suspension contained 500 AsPC-1 cells. The culture plate was cultured overnight in a 37° C., 5% CO2 incubator with 100% relative humidity. The test compound was diluted 5-fold to the eighth concentration using a pipette, ranging from 200 μM to 2.56 nM, and tested in duplicate. 78 μL of culture medium per well was added to an intermediate plate. Subsequently, 2 μL of the gradient diluted compound per well was transferred to the corresponding wells of the intermediate plate and mixed well. […] A multimode microplate reader was used for reading. […]

The test system of a further experiment is p-ERK in GP2D cells. Kind of experiment: p-ERK inhibition test of GP2D cells (HTRF). Particulars: Homo sapiens, 1 hour compound incubation. Type of experiment: cell-based. On the procedure: • 1). GP2D cells are seeded in a transparent 96-well cell culture plate, with 80 μL of cell suspension per well and 8000 cells per well, and the cell plate is incubated in a carbon dioxide incubator at 37° C. overnight; • 2). 2 μL of the compound is added to 78 μL of cell culture medium; after mixing well, 20 μL of the compound solution is taken and added to the corresponding cell plate wells, and the cell plate is put back into the carbon dioxide incubator to incubate for another 1 hour; • 3). After the incubation is completed, the cell supernatant is discarded, and 50 μL of 1× cell lysate is added to each well, and incubated at room temperature for 30 minutes with shaking; • 4). Phospho-ERK1/2 Eu Cryptate antibody and Phospho-ERK1/2 d2 antibody are 20-fold diluted using detection buffer; • 5). […] After the incubation is completed, a multimode microplate reader is used to read HTRF excitation: 320 nm, emission: 615 nm, 665 nm; • 7). The IC50 of the test compound is calculated.
• 1). […] After the incubation was completed, a multimode microplate reader was used to read HTRF excitation: 320 nm, emission: 615 nm, 665 nm; • 7) The IC50 of the test compound was calculated.
On the technique in general: Time-resolved FRET reads energy transfer from a long-lived donor to a nearby acceptor.

Structures are written as SMILES.

Regarding `C#Cc1c(F)ccc2cc(N)cc(-c3ncc4c(N5CC6CCC(C5)N6)nc(OC[C@@]56CC(=C)CN5C[C@@H]5C[C@@H]56)nc4c3F)c12` (single isomer, unassigned) [Compound 3], the TGI in experiment [1] (30 mpk) stood at 85.57%; in experiment [1] (100 mpk), 98.95%. Besides, the IC50 in experiment [2] was determined as 5.74 nM; with p-ERK in GP2D cells, 2.4 nM.

Usually TGI stands for the reduction of tumour growth relative to the control group. Read a low TGI as a weaker effect on the tumour. What is called IC50 is the midpoint of a concentration-inhibition curve.
